According to the NIST ThermoML archive (doi:10.1021/je301001g):
Numbers after ± are expanded uncertainties.

Settings: for surface tension liquid-gas: Maximal bubble pressure; for mass density / electrical conductivity / viscosity: 101.33 kPa, Liquid; for mass density: Buoyancy - hydrostatic balance; for electrical conductivity: MP522 conductivity instrument; for viscosity: Capillary tube (Ostwald / Ubbelohde) method

CCCCNC(=O)C[n+]1ccn(CC)c1.O=S(=O)([N-]S(=O)(=O)C(F)(F)F)C(F)(F)F
surface tension liquid-gas (283.15 K): 32.7 ± 0.3 mN/m
mass density (283.15 K): 1431 ± 0.6 kg/m3
electrical conductivity (283.15 K): 0.00606 ± 0.00014 S/m
surface tension liquid-gas (288.15 K): 32.4 ± 0.3 mN/m
mass density (288.15 K): 1427 ± 0.6 kg/m3
electrical conductivity (288.15 K): 0.00985 ± 0.00022 S/m
surface tension liquid-gas (293.15 K): 32.2 ± 0.3 mN/m
mass density (293.15 K): 1422.7 ± 0.6 kg/m3
electrical conductivity (293.15 K): 0.0153 ± 0.00033 S/m
surface tension liquid-gas (298.15 K): 31.8 ± 0.3 mN/m
mass density (298.15 K): 1418 ± 0.6 kg/m3
viscosity (298.15 K): 777.5 ± 38 mPa·s
electrical conductivity (298.15 K): 0.0233 ± 0.0005 S/m
surface tension liquid-gas (303.15 K): 31.6 ± 0.3 mN/m
mass density (303.15 K): 1413.5 ± 0.5 kg/m3
viscosity (303.15 K): 517.3 ± 23 mPa·s
electrical conductivity (303.15 K): 0.0332 ± 0.0007 S/m
surface tension liquid-gas (308.15 K): 31 ± 0.3 mN/m
mass density (308.15 K): 1409 ± 0.5 kg/m3
viscosity (308.15 K): 359 ± 14 mPa·s
electrical conductivity (308.15 K): 0.0467 ± 0.001 S/m
surface tension liquid-gas (313.15 K): 30.8 ± 0.3 mN/m
mass density (313.15 K): 1404.4 ± 0.5 kg/m3
viscosity (313.15 K): 255.2 ± 9 mPa·s
electrical conductivity (313.15 K): 0.0639 ± 0.0013 S/m
surface tension liquid-gas (318.15 K): 30.5 ± 0.3 mN/m
mass density (318.15 K): 1399.7 ± 0.5 kg/m3
viscosity (318.15 K): 187.9 ± 5.9 mPa·s
electrical conductivity (318.15 K): 0.0854 ± 0.0018 S/m
surface tension liquid-gas (323.15 K): 30.3 ± 0.3 mN/m
mass density (323.15 K): 1395.4 ± 0.5 kg/m3
viscosity (323.15 K): 138.9 ± 4 mPa·s
electrical conductivity (323.15 K): 0.111 ± 0.0023 S/m
surface tension liquid-gas (328.15 K): 29.8 ± 0.3 mN/m
mass density (328.15 K): 1391 ± 0.5 kg/m3
viscosity (328.15 K): 106 ± 2.8 mPa·s
electrical conductivity (328.15 K): 0.141 ± 0.0029 S/m
surface tension liquid-gas (333.15 K): 29.4 ± 0.3 mN/m
mass density (333.15 K): 1386.7 ± 0.5 kg/m3
viscosity (333.15 K): 82.1 ± 2 mPa·s
electrical conductivity (333.15 K): 0.177 ± 0.0036 S/m
surface tension liquid-gas (338.15 K): 29 ± 0.3 mN/m
mass density (338.15 K): 1382.3 ± 0.5 kg/m3
viscosity (338.15 K): 64.4 ± 1.5 mPa·s
electrical conductivity (338.15 K): 0.219 ± 0.004 S/m
viscosity (343.15 K): 53.3 ± 1.2 mPa·s
viscosity (348.15 K): 43.5 ± 1 mPa·s
viscosity (353.15 K): 35.8 ± 0.8 mPa·s
viscosity (358.15 K): 30 ± 0.7 mPa·s
viscosity (363.15 K): 25.3 ± 0.6 mPa·s
